The values below come from the Kinase Knowledgebase extract (Sharma et al. 2016).

“And” between values parts separate entries of the source, which are not always exact repeats. Equal values may be shown once. A value given as a limit tells only on which side of the number the result lay.

MAPK14 (human), sequence (Q16539 whole entry, looked up): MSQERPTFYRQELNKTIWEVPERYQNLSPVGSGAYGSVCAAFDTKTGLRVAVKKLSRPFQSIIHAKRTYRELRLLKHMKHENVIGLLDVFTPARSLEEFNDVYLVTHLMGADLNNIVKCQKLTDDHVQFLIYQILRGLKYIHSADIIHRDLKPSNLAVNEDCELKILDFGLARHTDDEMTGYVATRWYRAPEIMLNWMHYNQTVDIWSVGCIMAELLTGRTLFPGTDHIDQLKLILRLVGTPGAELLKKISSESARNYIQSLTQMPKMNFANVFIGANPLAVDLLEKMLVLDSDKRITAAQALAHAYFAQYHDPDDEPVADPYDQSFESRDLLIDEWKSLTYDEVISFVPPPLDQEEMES

The experiment concerns the target MAPK14 (human) (UniProt Q16539). The experiment can be described thus: Inhibition of MAPK14 Kinase Activity.
For the molecule `CN(C)CCNc1nccc(-c2c(-c3ccc(F)c(C(F)(F)F)c3)n[nH]c2C2CCNCC2)n1`, the IC50 (in general, the concentration at which inhibition is half-maximal) is 111 nM. The result for `C[C@@H](N[C@H]1CC[C@H](c2[nH]nc(-c3ccc(Cl)cc3)c2-c2ccncn2)CC1)c1ccccc1` reads 8.56 nM; that for `Cc1cc(F)ccc1-c1n[nH]c(C2CCN(C(=O)CO)CC2)c1-c1ccncn1`, 2680 nM; that for `C[C@H](N[C@H]1CC[C@@H](c2[nH]nc(-c3ccc(Cl)cc3)c2-c2ccncn2)CC1)c1ccc(F)cc1`, 130 nM and 61 nM.

Consider `C[C@H](N[C@H]1CC[C@@H](c2[nH]nc(-c3ccc(Cl)cc3)c2-c2ccncn2)CC1)c1ccccc1`, for which the IC50 is 112 nM and 44.9 nM. As for `Fc1ccc(CN2CCC(c3[nH]nc(-c4ccc(Cl)cc4)c3-c3ccncn3)CC2)cc1`, the figure is 9.27 nM; as for `O=C(CO)N1CCC(c2[nH]nc(-c3ccc(F)c(C(F)(F)F)c3)c2-c2ccncn2)CC1`, 339 nM; as for `CC(C)(C)OC(=O)N1CCC(c2[nH]nc(-c3ccc(Cl)cc3F)c2-c2ccnc(NC3CCCC3)n2)CC1`, 10 nM. As for `Cc1cc(-c2n[nH]c(C3CCN(C(=O)CO)CC3)c2-c2ccncn2)ccc1F`, the figure is 155 nM. As for `CC(=O)O[C@@H](C(=O)N1CCC(c2[nH]nc(-c3ccc(Cl)cc3)c2-c2ccncn2)CC1)c1ccccc1`, the figure is 572 nM; as for `O=C(CO)N1CCC(c2[nH]nc(-c3ccc(Cl)c(F)c3)c2-c2ccncn2)CC1`, 455 nM. In the case of `CC(C)(C)OC(=O)N1CCC(c2[nH]nc(-c3ccc(Cl)cc3)c2-c2ccnc(O[C@H]3CCOC3)n2)CC1`, the half-inhibitory concentration (IC50) was 1680 nM. As for `Clc1ccc(-c2n[nH]c([C@H]3CC[C@@H](NC4CCCCC4)CC3)c2-c2ccncn2)cc1`, the figure is 235 nM; as for `CN(C)CCNc1nccc(-c2c(-c3ccc(Cl)cc3F)n[nH]c2C2CCN(C)CC2)n1`, 1000 nM.

In turn, `O=C(CO)N1CCC(c2[nH]nc(-c3ccc(Cl)cc3)c2-c2ccnc(NC3CCCC3)n2)CC1` gave an IC50 of 10 nM. The result for `CN(C)CCNc1nccc(-c2c(-c3ccc(Cl)cc3)n[nH]c2C2CCN(C(=O)CO)CC2)n1` reads 859 nM; that for `O=C(C1CCCO1)N1CCC(c2[nH]nc(-c3ccc(Cl)cc3)c2-c2ccncn2)CC1` (centres undefined), 120 nM. As for `C[C@@H](N[C@H]1CC[C@H](c2[nH]nc(-c3ccc(Cl)cc3)c2-c2ccncn2)CC1)c1ccc(F)cc1`, the figure is 5.76 nM; as for `COc1ccc(-c2n[nH]c(C3CCN(C(=O)CO)CC3)c2-c2ccncn2)cc1OC`, more than 100000 nM.
